Experiments:
[1] = target: Serine/threonine-protein kinase 24 (Homo sapiens) (UniProt Q9Y6E0); experiment: Inhibition of wild-type human partial length MST3 (A30 to S311 residues) expressed in bacterial expression system assessed as residual activity at 50 nM by Kinomescan method relative to control
[2] = target: Serine/threonine-protein kinase MARK2 (Homo sapiens) (UniProt Q7KZI7); experiment: Inhibition of wild-type human partial length MARK2 (M1 to R450 residues) expressed in bacterial expression system assessed as residual activity at 50 nM by Kinomescan method relative to control
[3] = target: Ephrin type-A receptor 3 (Homo sapiens) (UniProt P29320); experiment: Inhibition of wild-type human partial length EPHA3 (D604 to K889 residues) expressed in bacterial expression system assessed as residual activity at 50 nM by Kinomescan method relative to control
Chain of Ephrin type-A receptor 3 (Homo sapiens) (P29320 whole entry, the tested form may be a part): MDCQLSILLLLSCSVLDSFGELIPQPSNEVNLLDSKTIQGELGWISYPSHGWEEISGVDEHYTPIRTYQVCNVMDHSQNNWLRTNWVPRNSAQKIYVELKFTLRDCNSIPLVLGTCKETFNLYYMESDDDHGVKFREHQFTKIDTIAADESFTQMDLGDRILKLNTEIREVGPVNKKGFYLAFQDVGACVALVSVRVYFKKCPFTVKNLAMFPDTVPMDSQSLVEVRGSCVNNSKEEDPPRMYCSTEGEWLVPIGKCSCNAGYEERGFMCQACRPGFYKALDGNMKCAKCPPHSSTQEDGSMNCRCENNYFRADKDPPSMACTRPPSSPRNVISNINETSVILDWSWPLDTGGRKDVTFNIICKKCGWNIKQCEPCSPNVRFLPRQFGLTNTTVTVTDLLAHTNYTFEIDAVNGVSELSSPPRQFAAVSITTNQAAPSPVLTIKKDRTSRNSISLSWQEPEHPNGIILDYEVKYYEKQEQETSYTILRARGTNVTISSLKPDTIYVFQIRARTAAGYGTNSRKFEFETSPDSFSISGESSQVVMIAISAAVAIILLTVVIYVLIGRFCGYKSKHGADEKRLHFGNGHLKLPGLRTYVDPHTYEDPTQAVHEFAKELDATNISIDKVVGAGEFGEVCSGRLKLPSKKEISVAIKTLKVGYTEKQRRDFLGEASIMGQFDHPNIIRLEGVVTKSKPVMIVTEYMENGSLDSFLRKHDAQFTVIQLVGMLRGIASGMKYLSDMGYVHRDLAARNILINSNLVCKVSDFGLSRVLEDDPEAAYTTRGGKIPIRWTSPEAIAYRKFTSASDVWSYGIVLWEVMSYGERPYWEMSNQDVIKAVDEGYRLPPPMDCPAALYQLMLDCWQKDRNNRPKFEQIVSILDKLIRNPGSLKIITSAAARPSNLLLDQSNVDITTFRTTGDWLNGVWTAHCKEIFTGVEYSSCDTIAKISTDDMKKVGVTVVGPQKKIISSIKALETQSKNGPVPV

[4] = target: Activin receptor type-2B (Homo sapiens) (UniProt Q13705); experiment: Inhibition of wild-type human ACTR2B (H169 to D504 residues) expressed in bacterial expression system assessed as residual activity at 50 nM by Kinomescan method relative to control
Chain of Activin receptor type-2B (Homo sapiens) (Q13705 whole entry, the tested form may be a part): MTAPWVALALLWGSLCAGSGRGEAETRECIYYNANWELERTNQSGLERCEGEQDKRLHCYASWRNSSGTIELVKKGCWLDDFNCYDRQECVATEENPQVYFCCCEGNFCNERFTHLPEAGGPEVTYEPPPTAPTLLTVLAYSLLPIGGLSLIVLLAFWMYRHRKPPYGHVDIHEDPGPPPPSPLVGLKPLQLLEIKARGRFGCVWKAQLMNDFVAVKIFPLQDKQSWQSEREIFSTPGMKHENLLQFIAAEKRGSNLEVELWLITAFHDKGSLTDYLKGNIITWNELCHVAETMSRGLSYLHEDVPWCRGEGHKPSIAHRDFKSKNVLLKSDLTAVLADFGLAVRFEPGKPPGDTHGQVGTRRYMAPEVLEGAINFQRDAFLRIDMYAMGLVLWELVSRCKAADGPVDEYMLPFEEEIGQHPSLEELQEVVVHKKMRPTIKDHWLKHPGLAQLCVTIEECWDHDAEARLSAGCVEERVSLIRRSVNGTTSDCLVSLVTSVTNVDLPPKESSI

[5] = target: Serine/threonine-protein kinase BRSK1 (Homo sapiens) (UniProt Q8TDC3); experiment: Inhibition of wild-type human partial length BRSK1 (M1 to E754 residues) expressed in bacterial expression system assessed as residual activity at 50 nM by Kinomescan method relative to control
[6] = target: Tyrosine-protein kinase ZAP-70 (Homo sapiens) (UniProt P43403); experiment: Inhibition of wild-type human partial length ZAP70 (D20 to G299 residues) expressed in mammalian expression system assessed as residual activity at 50 nM by Kinomescan method relative to control
[7] = target: Dual specificity mitogen-activated protein kinase kinase 1 (Homo sapiens) (UniProt Q02750); experiment: Inhibition of wild-type human full length MAP2K1 (M1 to V393 residues) expressed in mammalian expression system assessed as residual activity at 50 nM by Kinomescan method relative to control
[8] = target: Mitogen-activated protein kinase 8 (Homo sapiens) (UniProt P45983); experiment: Inhibition of wild-type human full length JNK1 (M1 to Q384 residues) expressed in mammalian expression system assessed as residual activity at 50 nM by Kinomescan method relative to control
Chain of Mitogen-activated protein kinase 8 (Homo sapiens) (P45983 whole entry, the tested form may be a part): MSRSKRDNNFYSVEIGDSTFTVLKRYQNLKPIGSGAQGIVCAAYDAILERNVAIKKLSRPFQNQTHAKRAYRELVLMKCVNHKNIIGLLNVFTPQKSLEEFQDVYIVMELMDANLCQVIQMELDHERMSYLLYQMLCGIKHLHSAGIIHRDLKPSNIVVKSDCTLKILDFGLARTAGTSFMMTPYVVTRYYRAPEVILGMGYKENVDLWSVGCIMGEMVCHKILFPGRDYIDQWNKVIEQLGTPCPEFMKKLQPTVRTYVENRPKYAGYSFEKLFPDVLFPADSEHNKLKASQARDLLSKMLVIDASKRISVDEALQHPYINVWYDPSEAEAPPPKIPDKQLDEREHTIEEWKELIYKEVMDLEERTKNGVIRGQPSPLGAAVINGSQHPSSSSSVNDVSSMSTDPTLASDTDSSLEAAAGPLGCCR

[9] = target: High affinity nerve growth factor receptor (Homo sapiens) (UniProt P04629); experiment: Inhibition of wild-type human partial length TRKA (G475 to G790 residues) expressed in mammalian expression system assessed as residual activity at 50 nM by Kinomescan method relative to control
[10] = target: Tyrosine-protein kinase Lck (Homo sapiens) (UniProt P06239); experiment: Inhibition of wild-type human partial length LCK (R207 to P509 residues) expressed in bacterial expression system assessed as residual activity at 50 nM by Kinomescan method relative to control
[11] = target: Tyrosine-protein kinase ITK/TSK (Homo sapiens) (UniProt Q08881); experiment: Inhibition of wild-type human partial length ITK (R335 to L620 residues) expressed in bacterial expression system assessed as residual activity at 50 nM by Kinomescan method relative to control
[12] = target: Serine/threonine-protein kinase LATS1 (Homo sapiens) (UniProt O95835); experiment: Inhibition of wild-type human partial length LATS1 (Q678 to V1130 residues) expressed in bacterial expression system assessed as residual activity at 50 nM by Kinomescan method relative to control
[13] = target: Serine/threonine-protein kinase pim-3 (Homo sapiens) (UniProt Q86V86); experiment: Inhibition of wild-type human partial length PIM3 (G16 to A317 residues) expressed in bacterial expression system assessed as residual activity at 50 nM by Kinomescan method relative to control
[14] = target: Receptor-interacting serine/threonine-protein kinase 1 (Homo sapiens) (UniProt Q13546); experiment: Inhibition of wild-type human partial length RIPK1 (M1 to K305 residues) expressed in bacterial expression system assessed as residual activity at 50 nM by Kinomescan method relative to control
Chain of Receptor-interacting serine/threonine-protein kinase 1 (Homo sapiens) (Q13546 whole entry, the tested form may be a part): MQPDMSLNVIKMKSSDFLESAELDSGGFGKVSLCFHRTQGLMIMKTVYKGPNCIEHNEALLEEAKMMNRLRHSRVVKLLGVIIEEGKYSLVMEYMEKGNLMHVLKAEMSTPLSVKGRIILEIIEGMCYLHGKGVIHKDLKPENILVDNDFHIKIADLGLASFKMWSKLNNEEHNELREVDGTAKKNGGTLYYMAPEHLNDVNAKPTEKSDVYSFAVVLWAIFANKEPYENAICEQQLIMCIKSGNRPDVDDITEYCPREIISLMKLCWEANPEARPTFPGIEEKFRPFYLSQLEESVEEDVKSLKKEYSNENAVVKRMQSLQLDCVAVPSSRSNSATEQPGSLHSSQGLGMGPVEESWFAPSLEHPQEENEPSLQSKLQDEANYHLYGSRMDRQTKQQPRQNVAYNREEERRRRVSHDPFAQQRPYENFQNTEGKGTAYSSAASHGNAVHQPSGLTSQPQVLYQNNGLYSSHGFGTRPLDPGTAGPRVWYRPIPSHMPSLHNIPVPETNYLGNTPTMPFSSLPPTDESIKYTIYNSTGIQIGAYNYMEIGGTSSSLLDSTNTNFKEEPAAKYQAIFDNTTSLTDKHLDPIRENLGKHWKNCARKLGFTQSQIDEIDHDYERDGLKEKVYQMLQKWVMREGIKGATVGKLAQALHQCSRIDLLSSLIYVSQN

[15] = target: Mitogen-activated protein kinase kinase kinase 4 (Homo sapiens) (UniProt Q9Y6R4); experiment: Inhibition of wild-type human partial length MAP3K4 ([…] residues) expressed in mammalian expression system assessed as residual activity at 50 nM by Kinomescan method relative to control
[16] = target: Serine/threonine-protein kinase D3 (Homo sapiens) (UniProt O94806); experiment: Inhibition of wild-type human partial length PKD3 (S543 to E863 residues) expressed in bacterial expression system assessed as residual activity at 50 nM by Kinomescan method relative to control
Chain of Serine/threonine-protein kinase D3 (Homo sapiens) (O94806 whole entry, the tested form may be a part): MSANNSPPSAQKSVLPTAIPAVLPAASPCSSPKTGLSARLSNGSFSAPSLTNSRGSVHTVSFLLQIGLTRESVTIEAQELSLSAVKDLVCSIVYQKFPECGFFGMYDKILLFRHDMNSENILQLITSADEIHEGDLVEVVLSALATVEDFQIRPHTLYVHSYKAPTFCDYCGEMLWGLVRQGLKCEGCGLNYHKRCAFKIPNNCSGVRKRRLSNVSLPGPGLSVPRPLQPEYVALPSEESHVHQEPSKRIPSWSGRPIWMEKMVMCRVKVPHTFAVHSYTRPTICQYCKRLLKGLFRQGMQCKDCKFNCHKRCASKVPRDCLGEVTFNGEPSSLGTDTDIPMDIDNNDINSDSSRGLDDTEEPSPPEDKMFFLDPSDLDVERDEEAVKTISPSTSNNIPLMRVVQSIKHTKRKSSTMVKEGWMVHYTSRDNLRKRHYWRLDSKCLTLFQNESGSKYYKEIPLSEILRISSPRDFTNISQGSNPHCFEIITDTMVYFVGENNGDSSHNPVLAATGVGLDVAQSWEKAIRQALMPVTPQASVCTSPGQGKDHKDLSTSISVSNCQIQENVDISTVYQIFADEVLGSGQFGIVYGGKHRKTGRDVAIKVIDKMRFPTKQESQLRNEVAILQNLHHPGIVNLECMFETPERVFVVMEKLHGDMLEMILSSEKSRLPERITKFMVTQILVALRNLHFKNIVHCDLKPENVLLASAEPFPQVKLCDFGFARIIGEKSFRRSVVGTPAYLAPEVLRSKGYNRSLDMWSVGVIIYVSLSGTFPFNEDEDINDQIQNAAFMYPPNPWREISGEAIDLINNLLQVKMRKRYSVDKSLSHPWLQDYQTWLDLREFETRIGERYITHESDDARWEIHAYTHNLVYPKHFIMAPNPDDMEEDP

[17] = target: Wee1-like protein kinase (Homo sapiens) (UniProt P30291); experiment: Inhibition of wild-type human partial length WEE1 (M291 to K575 residues) expressed in bacterial expression system assessed as residual activity at 50 nM by Kinomescan method relative to control
Chain of Wee1-like protein kinase (Homo sapiens) (P30291 whole entry, looked up, the tested form may be a part): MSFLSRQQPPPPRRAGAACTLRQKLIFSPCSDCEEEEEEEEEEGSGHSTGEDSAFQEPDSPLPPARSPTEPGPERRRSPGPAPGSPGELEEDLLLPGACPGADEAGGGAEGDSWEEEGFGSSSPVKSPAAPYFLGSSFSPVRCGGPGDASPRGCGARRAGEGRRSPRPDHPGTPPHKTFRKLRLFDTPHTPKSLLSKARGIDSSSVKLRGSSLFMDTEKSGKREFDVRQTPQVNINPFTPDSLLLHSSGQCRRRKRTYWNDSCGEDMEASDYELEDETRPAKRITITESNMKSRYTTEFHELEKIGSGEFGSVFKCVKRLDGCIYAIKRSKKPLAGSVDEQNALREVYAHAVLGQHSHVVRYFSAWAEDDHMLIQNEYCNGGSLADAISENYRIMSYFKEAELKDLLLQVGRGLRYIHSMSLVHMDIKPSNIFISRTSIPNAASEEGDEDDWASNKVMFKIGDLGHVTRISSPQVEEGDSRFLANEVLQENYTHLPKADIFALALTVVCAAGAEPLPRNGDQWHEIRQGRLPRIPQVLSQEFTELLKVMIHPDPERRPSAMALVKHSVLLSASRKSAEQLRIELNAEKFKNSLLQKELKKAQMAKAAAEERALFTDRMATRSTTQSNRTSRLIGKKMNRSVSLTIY

[18] = target: Tyrosine-protein kinase ABL1 (Homo sapiens) (UniProt P00519); experiment: Inhibition of wild-type human phosphorylated ABL1 (S229 to K512 residues) expressed in mammalian expression system assessed as residual activity at 50 nM by Kinomescan method relative to control
[19] = target: Activin receptor type-1 (Homo sapiens) (UniProt Q04771); experiment: Inhibition of wild-type human ALK2 (C188 to C509 residues) expressed in bacterial expression system assessed as residual activity at 50 nM by Kinomescan method relative to control
[20] = target: Bone morphogenetic protein receptor type-1A (Homo sapiens) (UniProt P36894); experiment: Inhibition of wild-type human partial length BMPR1A (Q214 to I532 residues) expressed in bacterial expression system assessed as residual activity at 50 nM by Kinomescan method relative to control
[21] = target: Cyclin-dependent kinase 8 (Homo sapiens) (UniProt P49336); experiment: Inhibition of wild-type human partial length CDK8 (M1 to T360 residues) expressed in bacterial expression system assessed as residual activity at 50 nM by Kinomescan method relative to control
[22] = target: Cyclin-dependent kinase-like 3 (Homo sapiens) (UniProt Q8IVW4); experiment: Inhibition of wild-type human partial length CDKL3 (M1 to D327 residues) expressed in bacterial expression system assessed as residual activity at 50 nM by Kinomescan method relative to control
Chain of Cyclin-dependent kinase-like 3 (Homo sapiens) (Q8IVW4 whole entry, looked up, the tested form may be a part): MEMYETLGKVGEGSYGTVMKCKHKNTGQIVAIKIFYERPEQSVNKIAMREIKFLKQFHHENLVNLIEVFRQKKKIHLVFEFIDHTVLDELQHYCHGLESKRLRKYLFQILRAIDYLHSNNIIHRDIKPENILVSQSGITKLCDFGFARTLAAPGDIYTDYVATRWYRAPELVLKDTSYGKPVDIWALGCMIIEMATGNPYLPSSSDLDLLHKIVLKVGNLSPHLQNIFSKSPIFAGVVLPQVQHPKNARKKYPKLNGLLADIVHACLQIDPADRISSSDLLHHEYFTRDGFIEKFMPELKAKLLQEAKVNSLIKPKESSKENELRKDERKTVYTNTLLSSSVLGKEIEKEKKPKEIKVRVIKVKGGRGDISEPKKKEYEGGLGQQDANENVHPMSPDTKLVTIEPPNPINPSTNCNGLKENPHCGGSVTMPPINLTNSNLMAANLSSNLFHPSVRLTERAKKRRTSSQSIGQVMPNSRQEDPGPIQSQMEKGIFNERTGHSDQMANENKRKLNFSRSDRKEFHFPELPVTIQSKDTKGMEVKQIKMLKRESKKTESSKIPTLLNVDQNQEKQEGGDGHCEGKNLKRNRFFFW

[23] = target: Ribosomal protein S6 kinase alpha-5 (Homo sapiens) (UniProt O75582); experiment: Inhibition of wild-type human partial length N-terminal MSK1 kinase domain 1 expressed in bacterial expression system assessed as residual activity at 50 nM by Kinomescan method relative to control
[24] = target: Myosin-IIIb (Homo sapiens) (UniProt Q8WXR4); experiment: Inhibition of wild-type human partial length MYO3B (M1 to D357 residues) expressed in bacterial expression system assessed as residual activity at 50 nM by Kinomescan method relative to control
[25] = target: Mitogen-activated protein kinase 13 (Homo sapiens) (UniProt O15264); experiment: Inhibition of wild-type human full length p38-delta (M1 to L365 residues) expressed in bacterial expression system assessed as residual activity at 50 nM by Kinomescan method relative to control

Compound | Activity [1] | Activity [2] | Activity [3] | Activity [4] | Activity [5] | Activity [6] | Activity [7] | Activity [8] | Activity [9] | Activity [10] | Activity [11] | Activity [12] | Activity [13] | Activity [14] | Activity [15] | Activity [16] | Activity [17] | Activity [18] | Activity [19] | Activity [20] | further results
COc1ccc(-c2cc3c(N[C@@H]4CC[C@](C)(N)C4(C)C)c(C(N)=O)cnn3c2)cn1 | 61% | 98% | 88% | 100% | 100% | 92% | 94% | 88% | 100% | 100% | 90% | 90% | 72% | 100% | 96% | 73% | 100% | 74% | 96% | 100% | Activity [21]: 86%; Activity [22]: 98%; Activity [23]: 100%; Activity [24]: 100%; Activity [25]: 100%
CC1(C)[C@H](Nc2c(C(N)=O)cnn3cc(-c4ccccc4)cc23)CC[C@]1(C)N | 38% | 64% | 65% | 67% | 75% | 79% | 80% | 81% | 83% | 87% | 89% | 91% | 92% | 92% | 96% | 96% | 97% | 100% | 100% | 100% | Activity [21]: 100%; Activity [22]: 100%; Activity [23]: 100%; Activity [24]: 100%; Activity [25]: 100%

Source: ChEMBL document CHEMBL4052645, “Discovery of potent and efficacious pyrrolopyridazines as dual JAK1/3 inhibitors” (Bioorg Med Chem Lett, 2017)
